According to US20130259884A1, “PEPTIDES” ([…] SL, priority 2010, published 2013):
Where a SMILES comes first, the peptide text is derived from it.

Test: Water solubility of peptides when preparing stock solutions
Type: physicochemical
Settings: stock solution in sterile distilled water or 100% DMSO; read-out: solubility of peptide (water soluble or water insoluble, dissolved in DMSO)
Summary of the method: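 Water-soluble peptides from water stocks and insoluble ones from 100% DMSO stocks (50 mg/ml), each diluted to 2 mg/ml in water then into media. Added singly or as pools to 350,000 PBMC in anti-IL-4 ELISPOT wells at 10 μg/ml final per peptide. Identically diluted media-only controls.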

Row | Compound | solubility [µg/mL]
1 | CC(C)C[C@H](NC(=O)[C@H](Cc1ccccc1)NC(=O)[C@H](CO)NC(=O)[C@H](CC(N)=O)NC(=O)[C@H](CCC(=O)O)NC(=O)CNC(=O)[C@@H](NC(=O)[C@H](CO)NC(=O)[C@H](Cc1ccc(O)cc1)NC(=O)[C@H](Cc1c[nH]c2ccccc12)NC(=O)[C@H](CCCCN)NC(=O)[C@H](Cc1c[nH]cn1)NC(=O)[C@@H](N)CC(=O)O)C(C)C)C(=O)N[C@@H](CC(=O)O)C(=O)N[C@@H](Cc1ccccc1)C(=O)O [Peptide L10-2.01, DHKWYSVGENSFLDF] (H-DHKWYSVGENSFLDF-OH) | > 2500
2 | CC[C@H](C)[C@H](NC(=O)[C@H](CC(=O)O)NC(=O)[C@H](CC(=O)O)NC(=O)[C@H](CO)NC(=O)[C@@H](NC(=O)[C@H](CCCCN)NC(=O)[C@H](CCC(N)=O)NC(=O)[C@@H](N)CCCCN)C(C)C)C(=O)N[C@H](C(=O)N[C@@H](Cc1ccc(O)cc1)C(=O)N[C@H](C(=O)N[C@@H](C)C(=O)N[C@H](C(=O)N[C@@H](C)C(=O)N[C@H](C(=O)O)[C@@H](C)O)[C@@H](C)O)C(C)C)[C@@H](C)O [Peptide L10-3, KQKVSDDITYVATAT] (H-KQKVSDDITYVATAT-OH) | > 2500
